Reference: US8278262B2, “Use of microproteins as tryptase inhibitors” (BioNTech AG, priority 2004, dated 2012)
Read-outs that look alike come from different tables or passages of the source. Bridge positions count the residues as written; N and C are the ends. Peptide text beside a SMILES is read from it.

What was measured:
[1] = target: T1, Trypsin (Bos taurus, UniProt P00760); experiment: Kiapp determination with trypsin (Example 3); assay type: biochemical, bovine
T1 sequence (P00760 24-246): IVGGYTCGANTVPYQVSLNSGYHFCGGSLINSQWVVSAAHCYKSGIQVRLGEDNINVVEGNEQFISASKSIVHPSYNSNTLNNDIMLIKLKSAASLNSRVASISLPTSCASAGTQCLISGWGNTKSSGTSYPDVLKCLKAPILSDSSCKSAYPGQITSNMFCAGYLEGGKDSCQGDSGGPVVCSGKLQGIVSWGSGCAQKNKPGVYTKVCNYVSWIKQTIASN
Text: Therefore, bovine pancreatic trypsin was standardised by active-site titration using p-Nitrophenyl p′-guanidinobenzoate (Chase & Shaw, 1970).

[2] = target: β3-Tryptase (Homo sapiens, UniProt P20231); experiment: Kiapp determination with tryptase (Example 3); assay type: biochemical
Description: (§1) Tryptase (0.2 nM) was preincubated with McoTi-KVV (0-34 nM) at 37 degree C. for 60 min, and the reaction was initiated by the addition of substrate tos-Gly-Pro-Arg-AMC. The residual steady state velocities were measured over 10 min and are expressed in % of the activity measured in the absence of the inhibitor.
as §1, with “MCoEeTI (0-1950” for “McoTi-KVV (0-34”

[3] = target: tetrameric tryptase (Homo sapiens, UniProt P20231); conditions: cited from earlier work
[4] = target: T2, bovine trypsin (Bos taurus, UniProt P00760); experiment: Trypsin inhibition with substrate Boc-Leu-Gly-Arg-pNA (Example 4); assay type: biochemical; conditions: as barnase′ fusion proteins
T2 construct: purchased Serva
T2 sequence (P00760 24-246): T1 sequence (P00760 24-246)
Description: The inhibitory activity of the protein variants was measured according to van Nostrand et al. (1990) and Sinha et al. (1991). The remaining activity of bovine trypsin (Serva) was determined after incubation with the respective inhibitor for 10 min at 37° C. by monitoring hydrolysis of the chromogenic substrate Boc-Leu-Gly-Arg-pNA (Bachem, solubilized in Me2SO) at 405 nm. Assays were performed in a final volume of 100 μl in 50 mM Tris-HCl, pH 7.5, 150 mM NaCl, 5 mM CaCl2 at 37° C. containing 5 nM of trypsin, […] and varying amounts of inhibitor (10^−10-10^−6 M). For calculation of Kiapp-values, vmax values were determined and the curve fitting tool of SigmaPlot (Jandel Scientific) was applied on the basis of the following formula, that describes the case of competitive tight binding inhibitors (Morrison, 1969):
[formula] vi=vmax value of inhibited reaction v0=vmax value of uninhibited reaction [Et]=total enzyme concentration (free and in complex) [It]=total inhibitor concentration (free and in complex) Kiapp=apparent dissociation constant of the enzyme-inhibitor complex. Results and Discussion Choice of Carrier Protein and Production Strategy

[5] = target: Thrombin (Homo sapiens, UniProt P00734); experiment: biochemical
[6] = target: hK3 (Homo sapiens, UniProt P07288); experiment: biochemical
[7] = target: Tryptase β-Ia (Homo sapiens, UniProt Q15661); experiment: biochemical
[8] = target: Elastase (Pankreas proteases) (Sus scrofa, UniProt P00772); experiment: biochemical
[9] = target: Faktor XA (Homo sapiens, UniProt P00742); experiment: biochemical
[10] = target: Cathepsin G (Homo sapiens, UniProt P08311); experiment: biochemical
[11] = target: tPA (Homo sapiens, UniProt P00750); experiment: biochemical
[12] = target: Tryptase β-II (Homo sapiens, UniProt P20231); experiment: biochemical
[13] = target: Trypsin (Sus scrofa, UniProt P00761); experiment: biochemical
[14] = target: Elastase (Neutrophiles) (Homo sapiens, UniProt P08246); experiment: biochemical
[15] = target: Tryptase ST2 (Ovis aries, UniProt Q9XSM2); experiment: biochemical
[16] = target: Chymotrypsin; experiment: Protease selectivity, Kiapp; assay type: biochemical; conditions: Porcine
[17] = target: Plasmin (Homo sapiens, UniProt P00747); experiment: biochemical
[18] = target: pK1; experiment: Protease selectivity, Kiapp; assay type: biochemical; conditions: Human

Compound: MCoEeTI-ARD-2: Barnase′-[…] (SEQ ID NO:39) (SSSMGVCPKILKACARDSDCLAGCVCGPNGFCGS; not fully specified)
- Ki [1]: 0.2 nM

Compound: MCoEeTI-T-1: Barnase′-[…] (SEQ ID NO:6) (SSSMGVCPKILKKCRRDSDCLAGCVCTNNKFCGS; not fully specified)
- Ki [1]: 0.1 nM
- Ki ([2]; read-out: Kiapp β3-Tryptase): 150 nM

Compound: MCoEeTI-LKA-7: Bar′-[…] (SEQ ID NO:40) (SSSMGVCPKILKACRRDSDCLAGCVCGPNGFCGS; not fully specified)
- Ki [1]: 0.2 nM

Compound: SE-BMG-0: Barnase′-[…] (SEQ ID NO:3) (SSSMGVCPKILKKCRRDSDCLAGCVCGPNGFCGS; not fully specified)
- Ki [1]: 0.2 nM
- Ki ([2]; read-out: Kiapp β3-Tryptase): 100 nM

Compound: MCoEeTI-KKV-1: Ba′-[…] (SEQ ID NO:5) (SSSMGKKVGVCPKILKKCRRDSDCLAGCVCGPNGFCGS; not fully specified)
- Ki [1]: 0.2 nM
- Ki ([2]; read-out: Kiapp β3-Tryptase): 20 nM

Compound: MCoEeTI-3R-3: Barnase′-[…] (SEQ ID NO:4) (SSSMGVCPRILRRCRRDSDCLAGCVCGPNGFCGS; not fully specified)
- Ki [1]: 0.2 nM
- Ki ([2]; read-out: Kiapp β3-Tryptase): 30 nM

Compound: LDTI: leech derived tryptase Inhibitor, a 46 residue Kazal-type protein (KKVCACPKILKPVCGSDGRTYANSCIARCNGVSIKSEGSCPTGILN; UniProt P80424 1-46, looked up)
- Ki ([3]; 2 of the 4 catalytic sites of the tetrameric tryptase): 1.4 nM
- Ki ([3]; one of the remaining two sites): 560 nM
- Ki ([3]; the other of the remaining two sites): 10000 nM

Compound: CC[C@H](C)[C@@H]1NC(=O)[C@H](CCCCN)NC(=O)[C@@H]2CCCN2C(=O)[C@@H](NC(=O)[C@@H](NC(=O)[C@H](CO)NC(=O)CN)C(C)C)CSSC[C@@H]2NC(=O)CNC(=O)[C@H](C)NC(=O)[C@H](CC(C)C)NC(=O)[C@@H]3CSSC[C@@H](C(=O)NCC(=O)N[C@@H](CO)C(=O)O)NC(=O)[C@H](Cc4ccccc4)NC(=O)CNC(=O)[C@H](CC(N)=O)NC(=O)[C@@H]4CCCN4C(=O)CNC(=O)[C@H](CSSC[C@H](NC(=O)[C@H](CCCCN)NC(=O)[C@H](CCCCN)NC(=O)[C@H](CC(C)C)NC1=O)C(=O)N[C@@H](CCCNC(=N)N)C(=O)N[C@@H](CCCNC(=N)N)C(=O)N[C@@H](CC(=O)O)C(=O)N[C@@H](CO)C(=O)N[C@@H](CC(=O)O)C(=O)N3)NC(=O)[C@H](C(C)C)NC2=O [MCoEeTI] (H-GSVCPKILKKCRRDSDCLAGCVCGPNGFCGS-OH; disulfide 4-21, 11-23, 17-29; N-terminus and C-terminus assumed)
- Ki [2]: 200 nM
- inhibition of bovine trypsin (in words) [4]: strong inhibitory activity

Compound: EETI-II [reference compound]
- inhibition of bovine trypsin (in words) [4]: strong inhibitory activity

Compound: MCoEeTI-QRT-7: Barnase′-[…] (SEQ ID NO:38) (SSSMGVCPRNRQRCRRDSDCLAGCVCTNNKFCGS; not fully specified)
- Ki [1]: 1 nM

Compound: CC[C@H](C)[C@@H]1NC(=O)[C@H](CCCCN)NC(=O)[C@@H]2CCCN2C(=O)[C@@H](NC(=O)[C@@H](NC(=O)CN)C(C)C)CSSC[C@@H]2NC(=O)CNC(=O)[C@H](C)NC(=O)[C@H](CC(C)C)NC(=O)[C@@H]3CSSC[C@@H](C(=O)NCC(=O)N[C@@H](CO)C(=O)O)NC(=O)[C@H](Cc4ccccc4)NC(=O)CNC(=O)[C@H](CC(N)=O)NC(=O)[C@@H]4CCCN4C(=O)CNC(=O)[C@H](CSSC[C@H](NC(=O)[C@H](CCCCN)NC(=O)[C@H](CCCCN)NC(=O)[C@H](CC(C)C)NC1=O)C(=O)N[C@@H](CCCNC(=N)N)C(=O)N[C@@H](CCCNC(=N)N)C(=O)N[C@@H](CC(=O)O)C(=O)N[C@@H](CO)C(=O)N[C@@H](CC(=O)O)C(=O)N3)NC(=O)[C@H](C(C)C)NC2=O [SE-MG-0] (H-GVCPKILKKCRRDSDCLAGCVCGPNGFCGS-OH; disulfide 3-20, 10-22, 16-28; N-terminus and C-terminus assumed)
- Ki [5]: > 1000 nM
- Ki [6]: > 1000 nM
- Ki [7]: 70 nM
- Ki [8]: > 1000 nM
- Ki [9]: > 1000 nM
- Ki [10]: > 1000 nM
- Ki [11]: > 1000 nM
- Ki [12]: 70 nM
- Ki [13]: 0.3 nM
- Ki [14]: > 1000 nM
- Ki [2]: 100 nM
- Ki [15]: 4000 nM
- Ki [16]: > 1000 nM
- Ki [17]: ~600 nM
- Ki [18]: > 1000 nM
